Experimental data: paper PMC9855333, “1-(Arylsulfonyl-isoindol-2-yl)piperazines as 5-HT6R Antagonists: Mechanochemical Synthesis, In Vitro Pharmacological Properties and Glioprotective Activity” (Biomolecules, 2022)
Values joined by “and” are separate entries in the source; they are usually repeats but may differ in a detail not shown here. Equal entries are not always repeated. Where two headings read alike, the source gives them in different places.

Legend:
human 5-HT7b receptor = biological target: T1, human 5-HT7b receptor (Homo sapiens, UniProt P34969); experiment: Radioligand binding, [3H]-5-CT displacement, HEK-293 cells; details: mean ± SEM, three independent binding experiments; read-out: Ki [nM] 5-HT7R
T1 construct: expressed in transfected cells
Experimental: (§1) All experiments were performed in HEK-293 cells, which stably express the human 5-HT1A, 5-HT6, 5-HT7b, and D2L receptors, or using CHO-K1 cells expressing human serotonin 5-HT2A receptor, following the previously reported procedures. For displacement studies, the following radioligands (PerkinElmer, USA) at given concentrations were used at: 2.5 nM [^3H]-8-OH-DPAT (135.2 Ci/ mmol); 1 nM [^3H]-ketanserin (53.4 Ci/mmol); 2 nM [^3H]-LSD (83.6 Ci/mmol); 0.8 nM [^3H]-5-CT (39.2 Ci/mmol) or 2.5 nM [^3H]-raclopride (76.0 Ci/mmol) for 5-HT1A, 5-HT2A, 5-HT6, 5-HT7b and D2L receptors, respectively. All tested compounds were evaluated in triplicate at 7 concentrations (10^−10–10^−4 M). The inhibition constants (Ki) were calculated from the Cheng–Prusoff equation [25]. A detailed description is reported in the Supporting Information.
(§2) 1. Procedure for radioligand binding assay
(§3) All experiments were carried out according to the previously published procedures. HEK293 cells stably expressing human 5-HT1A, 5-HT6, 5-HT7b and D2L receptors (prepared with the use of Lipofectamine 2000) or CHO-K1 cells with plasmid containing the sequence coding for the human serotonin 5-HT2A receptor (Perkin Elmer) were maintained at 37 °C in a humidified atmosphere containing 5% CO2 and grown in Dulbecco’s Modified Eagle’s Medium containing 10% dialyzed fetal bovine serum and 500 μg/ml G418 sulfate. For membrane preparation, cells were cultured in 150 cm2 flasks, grown to 90% confluence, washed twice with pre-warmed to 37 °C phosphate buffered saline (PBS) and centrifuged (200 × g) in PBS containing 0.1 mM EDTA and 1 mM dithiothreitol. Prior to membrane preparation, pellets were stored at –80 °C. […]
The process of equilibration was terminated by rapid filtration through Unifilter plates with a 96-well cell harvester and radioactivity retained on the filters was quantified on a Microbeta plate reader (PerkinElmer, USA). […] The inhibition constants (Ki) were calculated from the Cheng-Prusoff equation [4].

5-HT6R = 5-HT6R (Homo sapiens, UniProt P50406); experiment: Radioligand binding, [3H]-LSD displacement, HEK-293 cells; parameters: expressed in transfected cells; details: three independent binding experiments
Experimental: as §1
All synthesized compounds were evaluated in ^3[H]-LSD competition binding experiments for their affinity for 5-HT6R expressed in HEK-293 cells (Table 1). Embedding the sulfonamide moiety into an unsubstituted isoindoline scaffold was sufficient to provide potent compounds 3a and 3e. […] This effect might result from the favorable localization of the bromine atom at the isoindoline fragment, which enabled compound 3k to adopt an optimal position in the receptor binding pocket via the formation of hydrophobic/steric interactions.
as §2
as §3, with “°C. Cell pellets were thawed and homogenized in 10 volumes of assay buffer using an Ultra Turrax tissue homogenizer and centrifuged twice at 35,000 × g for 15 min at 4 °C, with incubation for 15 min at 37 °C between the centrifugations. The composition of the assay buffers was experimentally selected to achieve the” for “°C.”
5-HT1AR: 50 mM Tris HCl, 0.1 mM EDTA, 4 mM MgCl2, 10 μM pargyline and 0.1% ascorbate; 5-HT2AR: 50 mM Tris HCl, 0.1 mM EDTA, 4 mM MgCl2 and 0.1% ascorbate;
5-HT6R: 50 mM Tris HCl, 0.5 mM EDTA and 4 mM MgCl2; 5-HT7bR: 50 mM Tris HCl, 4 mM MgCl2, 10 μM pargyline and 0.1% ascorbate; D2LR: 50 mM Tris HCl, 1 mM EDTA, 4 mM MgCl2, 120 mM NaCl, 5 mM KCl, 1.5 mM CaCl2 and 0.1% ascorbate).
All assays were carried out in a total volume of 200 μL in 96-well plates for 1 h at 37 °C, except 5-HT1AR and 5-HT2AR which were incubated at room temperature and 27 °C, respectively.
The process of equilibration was terminated by rapid filtration through Unifilter plates with a 96-well cell harvester and radioactivity retained on the filters was quantified on a Microbeta plate reader (PerkinElmer, USA). For displacement studies the assay samples contained as radioligands (PerkinElmer, USA): 2.5 nM [3H]-8-OH-DPAT (135.2 Ci/ mmol) for 5-HT1AR; 1 nM [3H]-ketanserin (53.4 Ci/mmol) for 5-HT2AR; 2 nM [3H]-LSD (83.6 Ci/mmol) for 5-HT6R; 0.8 nM [3H]-5-CT (39.2 Ci/mmol) for 5-HT7R or 2.5 nM [3H]-raclopride (76.0 Ci/mmol) for D2LR. Non-specific binding was defined in the presence of 10 μM of 5-HT in 5-HT1AR and 5-HT7R binding experiments, 20 μM of mianserin for 5-HT2AR, 10 μM of methiothepine for 5-HT6R or 10 μM of haloperidol for D2LR bidning assays. Each compound was tested in triplicate at 7 concentrations (10-10–10-4 M). The inhibition constants (Ki) were calculated […]

[1] = Table 1, HEK293 cells, read-out: Ki [nM] ± SEM at the 5-HT6R
[2] = Table 2, mean ± SEM, read-out: 5-HT6R Ki

T1 sequence (P34969 1-432 limits assumed): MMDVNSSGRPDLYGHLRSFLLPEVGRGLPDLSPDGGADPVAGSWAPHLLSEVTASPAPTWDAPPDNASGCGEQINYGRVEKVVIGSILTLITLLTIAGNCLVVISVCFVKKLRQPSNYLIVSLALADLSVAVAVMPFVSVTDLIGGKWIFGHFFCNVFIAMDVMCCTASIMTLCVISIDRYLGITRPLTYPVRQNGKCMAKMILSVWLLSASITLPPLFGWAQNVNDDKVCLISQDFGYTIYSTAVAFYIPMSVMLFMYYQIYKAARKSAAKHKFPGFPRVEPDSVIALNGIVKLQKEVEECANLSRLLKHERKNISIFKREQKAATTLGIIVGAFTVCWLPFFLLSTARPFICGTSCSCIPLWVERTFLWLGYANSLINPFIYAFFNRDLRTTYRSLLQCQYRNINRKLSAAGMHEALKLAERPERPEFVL
Chain of 5-HT6R (P50406 whole entry): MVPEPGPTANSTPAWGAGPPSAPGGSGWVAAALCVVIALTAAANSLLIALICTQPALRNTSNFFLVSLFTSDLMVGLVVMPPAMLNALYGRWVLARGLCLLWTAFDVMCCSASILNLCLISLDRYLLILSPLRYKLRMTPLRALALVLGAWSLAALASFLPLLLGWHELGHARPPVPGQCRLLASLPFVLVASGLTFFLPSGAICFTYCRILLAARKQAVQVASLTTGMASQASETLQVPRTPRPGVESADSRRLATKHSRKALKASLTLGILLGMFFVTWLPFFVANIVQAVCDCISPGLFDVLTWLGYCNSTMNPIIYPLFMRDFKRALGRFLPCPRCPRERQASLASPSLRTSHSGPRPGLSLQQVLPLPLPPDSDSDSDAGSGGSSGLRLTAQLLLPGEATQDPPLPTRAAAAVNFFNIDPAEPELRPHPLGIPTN

Compound | Ki (human 5-HT7b receptor) [nM] | Ki (5-HT6R; [1]) | Ki (5-HT6R; [2]) [nM]
O=S(=O)(c1cccc(N2CCNCC2)c1)N1Cc2ccccc2C1 [3e, 2-{[3-(Piperazin-1-yl)phenyl]sulfonyl}isoindoline] | 4530 ± 327 | < 5 nM | 2 ± 0.2
O=S(=O)(c1cccc(N2CCNCC2)c1)N1Cc2cccc(Cl)c2C1 [3f, 4-Chloro-2-{[3-(piperazin-1-yl)phenyl]sulfonyl}isoindoline] | 10700 ± 1030 | < 5 nM and 1 nM | 1 ± 0.2
O=S(=O)(c1cccc(N2CCNCC2)c1)N1Cc2cccc(Br)c2C1 [3g, 4-Bromo-2-{[3-(piperazin-1-yl)phenyl]sulfonyl}isoindoline] | 8800 ± 854 | < 5 nM and 1 nM | 1 ± 0.4
